# Test results: patent publication US10533201B2, “Enzymatic transphosphorylation of sugar substrates” (priority 2014, dated 2020)
# Read-outs that look alike come from different tables or passages of the source.
# Legend:
# Format in all cases: biochemical
# [1] = molecular target: T1, αGlc 1-P phosphatase (Escherichia coli, UniProt P19926, D396N/Q163K/Y105D); details: for Glc 6-P kcat_app (formation) / Fru 6-P kcat_app (formation) / Glc 1-P kcat_app (consumption) / Fru 1-P kcat_app (formation) / Phosphate kcat_app (release): pH 7.0, 37° C.
# T1 construct: Strep-tag (N); made in house; host or cells: E. coli Origami B (DE3), cytoplasmic, pMS470_dsbC vector (DsbC co-expressed)
# Description: Fru 6-P was measured using an assay with mannitol 1-phosphate dehydrogenase (52). […] (1)
# Fru (100, 200, 400 or 600 mM) or Glc (200 mM) was used as the acceptor substrate. […] Sampling was done to allow for determination of initial rates, but the full reaction time course was also recorded. Relevant kcat_app values for substrate consumption, phosphate release, and phosphoryl transfer were obtained from the corresponding V values using equation 2. Internal consistency of the data was always checked by mass balance. pH dependence of phosphoryl transfer. […] A 50 mM Mes buffer was used, except at pH ≤6.0 where 50 mM Mes and 20 mM sodium acetate were used, and at pH 8.0 where 50 mM Mes and 50 mM Tes were used. Buffer pH values were adjusted at 37° C. and controlled before and after recording each enzyme-catalyzed reaction. Sampling and analyses were as described above.
# For data analysis by non-linear least-squares regression, SigmaPlot 2004 version 9.0 was used. Equation 3 describes a pH dependence where activity (expressed as logarithmic kcat_app) is constant at low pH and decreases above pKB. C is the pH-independent value of kcat_app at the optimum state of protonation, K is the proton dissociation constant and [H^+] is the proton concentration. log(kcat_app)=log(C/(1+K/[H^+])) (3) High Performance Anion Exchange Chromatography with Pulsed Amperometric Detection (HPAEC-PAD).
# Selected samples were analyzed on a Dionex BioLC system (Dionex Corporation, Sunnyvale, USA) equipped with a CarboPac PA10 column (4×250 mm) and an Amino Trap guard column (4×50 mm) thermostated at 30° C. […] Elution was carried out at a flow rate of 0.9 mL/min with the following method: isocratic flow of 52 mM NaOH for 20 min, followed by a linear gradient from 100 mM NaOAc to 400 mM NaOAc, applied within 25 min in an isocratic background of 100 mM NaOH. The column was washed for 5 min with 52 mM NaOH.
# [2] = molecular target: T1, αGlc 1-P phosphatase; details: 20 mM substrate; for hydrolysis by αGlc 1-P phosphatase (in words): pyrophosphate and phytate at pH 7.0 and pH 4.5
# Description: Inorganic phosphate was determined colorimetrically at 850 nm (56).
# Hydrolysis reactions were carried out at an initial substrate concentration of 20 mM. […] Samples were taken in 15 min intervals, heat-treated (99° C., 5 min), and centrifuged at 20,000 g for 5 min. The release of phosphate was measured, and the initial rate V (mM min^−1) was determined from the linear relationship between phosphate concentration and time. […] (2)
# A series of phosphorylated sugars were tested as substrates for hydrolysis by phosphatase.
# [3] = molecular target: glucose-1-phosphatase (Escherichia coli, UniProt P19926, D396N/Q163K/Y105D); details: 20 mM αGlc 1-P and 200 mM acceptor
# Description: FIG. 10: Acceptor substrates phosphorylated by glucose-1-phosphatase. […] Product yields were determined at conversions >90% except for N-acetyl D-glucosamine (GlcNAc) 38%, D-glucosamine (D-GlcN) 81%, D-xylose (D-Xyl) 69%, L-Arabinose (L-Ara) 86%, D-Xylitol (D-Xol) 89% and L-Fucose (L-Fuc) 75%, respectively. All acceptors are phosphorylated at the C1-OH position except for (*) D-glucosamine where the predominant product was phosphorylated at the C6-OH. Light grey bars indicate rS/rP ratio, while the dark grey bars indicate the product yield.
# Product yields were determined at conversions >90% except for N-acetyl D-glucosamine (GlcNAc) 38%, D-glucosamine (D-GlcN) 81%, D-xylose (D-Xyl) 69%, L-Arabinose (L-Ara) 86%, D-Xylitol (D-Xol) 89% and L-Fucose (L-Fuc) 75%, respectively. All acceptors are phosphorylated at the C1-OH position except for (*) D-glucosamine where the predominant product was phosphorylated at the C6-OH. Light grey bars indicate rS/rP ratio, while the dark grey bars indicate the product yield.
# [4] = 200 mM Glc acceptor, 20 mM αGlc 1-P
# [5] = 200 mM Glc acceptor, 20 mM αGlc 1-P, pH 7.0
# [6] = 0.1 μM enzyme, 37° C., 50 mM Mes pH 7.0, n.d. = no activity above assay detection limit
# T1 sequence (P19926 other isoform, or with tags, fused parts or gaps Y105D/Q163K/D396N): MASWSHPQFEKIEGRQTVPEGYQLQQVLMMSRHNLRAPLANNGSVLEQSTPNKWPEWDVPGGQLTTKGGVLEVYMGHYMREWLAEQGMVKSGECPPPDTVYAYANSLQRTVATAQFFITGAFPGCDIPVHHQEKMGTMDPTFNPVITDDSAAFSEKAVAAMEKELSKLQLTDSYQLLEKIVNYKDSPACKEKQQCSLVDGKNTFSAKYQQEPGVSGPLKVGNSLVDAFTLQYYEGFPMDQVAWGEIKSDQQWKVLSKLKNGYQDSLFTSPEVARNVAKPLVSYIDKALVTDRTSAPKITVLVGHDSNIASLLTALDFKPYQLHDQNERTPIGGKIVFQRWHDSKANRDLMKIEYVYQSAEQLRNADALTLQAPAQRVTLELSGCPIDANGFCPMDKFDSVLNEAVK
# Chain of glucose-1-phosphatase (P19926 other isoform, or with tags, fused parts or gaps Y105D/Q163K/D396N): as above
compound,measurement,setting,value
"O=C[C@H](O)[C@@H](O)[C@H](O)[C@H](O)COP(=O)(O)O [Glc 6-P, D-glucose-6-phosphate]",kcat_app ratio for formation of Glc 6-P and phosphate,[1]; [4],8.5
same,kcat_app for Glc 6-P synthesis,[1]; [5],34 s⁻¹
same,Glc 6-P kcat_app (formation),"[1]; Fru 100 mM, 20 mM αGlc 1-P",5 s⁻¹
same,Glc 6-P kcat_app (formation),"[1]; Fru 200 mM, 20 mM αGlc 1-P",6 s⁻¹
same,Glc 6-P kcat_app (formation),"[1]; Fru 400 mM, 20 mM αGlc 1-P",4 s⁻¹
same,Glc 6-P kcat_app (formation),"[1]; Fru 600 mM, 20 mM αGlc 1-P",5 s⁻¹
same,"αGlc 1-P phosphatase kcat_app, hydrolysis",[2]; [6],56 s⁻¹
"O=C(CO)[C@@H](O)[C@H](O)[C@H](O)COP(=O)(O)O [Fru 6-P, D-fructose-6-phosphate]",Fru 6-P kcat_app (formation),"[1]; Fru 100 mM, 20 mM αGlc 1-P",11^b s^−1
same,Fru 6-P kcat_app (formation),"[1]; Fru 200 mM, 20 mM αGlc 1-P",20^ s^−1
same,Fru 6-P kcat_app (formation),"[1]; Fru 400 mM, 20 mM αGlc 1-P",28^ s^−1
same,Fru 6-P kcat_app (formation),"[1]; Fru 600 mM, 20 mM αGlc 1-P",36^c s^−1
same,"αGlc 1-P phosphatase kcat_app, hydrolysis",[2]; [6],22^a s^−1
"O=P(O)(O)O[C@H]1[C@H](OP(=O)(O)O)[C@@H](OP(=O)(O)O)[C@H](OP(=O)(O)O)[C@@H](OP(=O)(O)O)[C@H]1OP(=O)(O)O [Phytate, myo-inositol hexakisphosphate]",hydrolysis by αGlc 1-P phosphatase (in words),[2],weakly active
same,"αGlc 1-P phosphatase kcat_app, hydrolysis","[2]; reactions at pH 7.0 and pH 4.5 (50 mM sodium acetate), phytate active only at pH 4.5, n.d. = no activity above detection limit",2.1 s⁻¹
"O=P(O)(O)O[C@H]1O[C@H](CO)[C@@H](O)[C@H](O)[C@H]1O [αGlc 1-P, alpha-glucose-1-phosphate]",enhancement of α-Glc 1-P consumption rate compared to control without Fru,"[1]; 200 mM Fru, 20 mM α-Glc 1-P",about 3 fold
same,kcat_app for α-Glc 1-P consumption,[1]; [5],40 s⁻¹
same,Glc 1-P kcat_app (consumption),"[1]; Fru 0 mM, 20 mM αGlc 1-P",40 s⁻¹
same,Glc 1-P kcat_app (consumption),"[1]; Fru 100 mM, 20 mM αGlc 1-P",73 s⁻¹
same,Glc 1-P kcat_app (consumption),"[1]; Fru 200 mM, 20 mM αGlc 1-P",137 s⁻¹
same,Glc 1-P kcat_app (consumption),"[1]; Fru 400 mM, 20 mM αGlc 1-P",162 s⁻¹
same,Glc 1-P kcat_app (consumption),"[1]; Fru 600 mM, 20 mM αGlc 1-P",189 s⁻¹
same,increase of kcat_app (α-Glc 1-P) in hyperbolic dependence of the Fru concentration,[1]; Fru 100-600 mM,about 5 fold
same,"αGlc 1-P phosphatase kcat_app, hydrolysis",[2]; [6],40 s⁻¹
"O=C(COP(=O)(O)O)[C@@H](O)[C@H](O)[C@H](O)CO [Fru 1-P, D-fructose 1-phosphate]",Fru 1-P kcat_app (formation),"[1]; Fru 100 mM, 20 mM αGlc 1-P",39 s⁻¹
same,Fru 1-P kcat_app (formation),"[1]; Fru 200 mM, 20 mM αGlc 1-P",88 s⁻¹
same,Fru 1-P kcat_app (formation),"[1]; Fru 400 mM, 20 mM αGlc 1-P",111^a s^−1
same,Fru 1-P kcat_app (formation),"[1]; Fru 600 mM, 20 mM αGlc 1-P",135 s⁻¹
same,"αGlc 1-P phosphatase kcat_app, hydrolysis",[2]; [6],22 s⁻¹
N[C@H]1C(O)O[C@H](CO)[C@H](O)[C@@H]1O (stereo partly drawn) [D-galactosamine],phosphorylation of acceptor by glucose-1-phosphatase (in words),[3],not phosphorylated
O=P(O)(O)OP(=O)(O)O [Pyrophosphate],hydrolysis by αGlc 1-P phosphatase (in words),[2],not hydrolyzed
O=C[C@H](O)[C@@H](O)[C@H](O)[C@H](O)C(=O)O [D-Glucuronic acid],phosphorylation of acceptor by glucose-1-phosphatase (in words),[3],not phosphorylated
phosphate,decrease of phosphate release rate compared to control without Fru,"[1]; 200 mM Fru, 20 mM α-Glc 1-P",about 2 fold
same,suppression of phosphate release rate compared to control reaction lacking Glc,[1]; [4],about 10 fold
same,kcat_app of phosphate formation,[1]; [5],4 s⁻¹
same,Phosphate kcat_app (release),"[1]; Fru 0 mM, 20 mM αGlc 1-P",40 s⁻¹
same,Phosphate kcat_app (release),"[1]; Fru 100 mM, 20 mM αGlc 1-P",21 s⁻¹
same,Phosphate kcat_app (release),"[1]; Fru 200 mM, 20 mM αGlc 1-P",18 s⁻¹
same,Phosphate kcat_app (release),"[1]; Fru 400 mM, 20 mM αGlc 1-P",14 s⁻¹
same,Phosphate kcat_app (release),"[1]; Fru 600 mM, 20 mM αGlc 1-P",13 s⁻¹
O=P(O)(O)O[C@@H]1O[C@H](CO)[C@@H](O)[C@H](O)[C@H]1O [βGlc 1-P],hydrolysis by αGlc 1-P phosphatase (in words),[2],completely inactive
